# Laboratory results published in ChEMBL document CHEMBL3885881, “DrugMatrix”.
# Organism: Rattus norvegicus
# Experiment: DrugMatrix - Regimen: Daily Repeat
# Format: toxicity, organism-based, Sprague-Dawley
# Set-up: regimen Daily Repeat, gender Male, age 6-8 weeks
# Conditions: in vivo, po, route oral GAVAGE; for ABSOLUTE MONOCYTE / ABSOLUTE SEGMENTED NEUTROPHIL / BASOPHIL / EOSINOPHIL / ERYTHROCYTE COUNT / HEMATOCRIT / HEMOGLOBIN / LEUKOCYTE COUNT / LYMPHOCYTE / MEAN CORPUSCULAR HEMOGLOBIN / MEAN CORPUSCULAR HEMOGLOBIN CONCENTRATION / MEAN CORPUSCULAR VOLUME / MONOCYTE / NEUTROPHIL / NUCLEATED RED BLOOD CELLS / PLATELET COUNT / ABSOLUTE BASOPHIL / ABSOLUTE EOSINOPHIL / ABSOLUTE LYMPHOCYTE: tissue Blood; for ALANINE AMINOTRANSFERASE / ALBUMIN / ALKALINE PHOSPHATASE / ASPARTATE AMINOTRANSFERASE / BLOOD UREA NITROGEN / CARBON DIOXIDE / CHLORIDE / CHOLESTEROL / CREATINE PHOSPHOKINASE / CREATININE / GLUCOSE / LACTATE DEHYDROGENASE / LIPASE / PHOSPHORUS / POTASSIUM / SODIUM / TOTAL BILIRUBIN / TOTAL PROTEIN / URIC ACID: tissue Plasma
# [1] = 20 mg/kg, 120 h, dose level Low, time 5 day, […]
# [2] = 54 mg/kg, 72 h, dose level M1, time 3 day, vehicle 100 % WATER
# [3] = 54 mg/kg, 120 h, dose level M1, time 5 day, vehicle 100 % WATER
# [4] = 160 mg/kg, 72 h, dose level High, time 3 day, […]
# [5] = 160 mg/kg, 120 h, dose level High, time 5 day, […]
smiles,measurement,setting,value
Cn1cnc([N+](=O)[O-])c1Sc1ncnc2nc[nH]c12 [AZATHIOPRINE],ABSOLUTE MONOCYTE,[1],73.67 CELLS/uL
same,ABSOLUTE SEGMENTED NEUTROPHIL,[1],134 CELLS/uL
same,BASOPHIL,[1],0%
same,EOSINOPHIL,[1],0%
same,ERYTHROCYTE COUNT,[1],5 x10E6/uL
same,HEMATOCRIT,[1],31.27%
same,HEMOGLOBIN,[1],12.3 G/DL
same,LEUKOCYTE COUNT,[1],5.33 x10E3/uL
same,LYMPHOCYTE,[1],96%
same,MEAN CORPUSCULAR HEMOGLOBIN,[1],24.53 pg
same,MEAN CORPUSCULAR HEMOGLOBIN CONCENTRATION,[1],39.33 G/DL
same,MEAN CORPUSCULAR VOLUME,[1],62.43 fL
same,MONOCYTE,[1],1.33%
same,NEUTROPHIL,[1],2.67%
same,NUCLEATED RED BLOOD CELLS,[1],0 /100WBC
same,PLATELET COUNT,[1],1346.67 x10E3/uL
same,ALANINE AMINOTRANSFERASE,[1],45.33 u/L
same,ALBUMIN,[1],4.33 G/DL
same,ALKALINE PHOSPHATASE,[1],305 u/L
same,ASPARTATE AMINOTRANSFERASE,[1],83 u/L
same,BLOOD UREA NITROGEN,[1],14 mg/dL
same,CARBON DIOXIDE,[1],29.33 mmol/L
same,CHLORIDE,[1],104.33 MEQ/L
same,CHOLESTEROL,[1],75 mg/dL
same,CREATINE PHOSPHOKINASE,[1],212.33 u/L
same,CREATININE,[1],0.4 mg/dL
same,GLUCOSE,[1],152.67 mg/dL
same,LACTATE DEHYDROGENASE,[1],68 u/L
same,LIPASE,[1],13 u/L
same,PHOSPHORUS,[1],10.93 mg/dL
same,POTASSIUM,[1],5.68 MEQ/L
same,SODIUM,[1],146.9 MEQ/L
same,TOTAL BILIRUBIN,[1],0.1 mg/dL
same,TOTAL PROTEIN,[1],6.67 G/DL
same,URIC ACID,[1],0.33 mg/dL
same,ABSOLUTE BASOPHIL,[2],0 CELLS/uL
same,ABSOLUTE EOSINOPHIL,[2],0 CELLS/uL
same,ABSOLUTE LYMPHOCYTE,[2],10600.67 CELLS/uL
same,ABSOLUTE MONOCYTE,[2],39.33 CELLS/uL
same,ABSOLUTE SEGMENTED NEUTROPHIL,[2],326.67 CELLS/uL
same,BASOPHIL,[2],0%
same,EOSINOPHIL,[2],0%
same,ERYTHROCYTE COUNT,[2],5.04 x10E6/uL
same,HEMATOCRIT,[2],31.57%
same,HEMOGLOBIN,[2],12.03 G/DL
same,LEUKOCYTE COUNT,[2],10.97 x10E3/uL
same,LYMPHOCYTE,[2],96.67%
same,MEAN CORPUSCULAR HEMOGLOBIN,[2],23.9 pg
same,MEAN CORPUSCULAR HEMOGLOBIN CONCENTRATION,[2],38.13 G/DL
same,MEAN CORPUSCULAR VOLUME,[2],62.73 fL
same,MONOCYTE,[2],0.33%
same,NEUTROPHIL,[2],3%
same,NUCLEATED RED BLOOD CELLS,[2],0 /100WBC
same,PLATELET COUNT,[2],1322.33 x10E3/uL
same,ALANINE AMINOTRANSFERASE,[2],39.67 u/L
same,ALBUMIN,[2],4.23 G/DL
same,ALKALINE PHOSPHATASE,[2],313.33 u/L
same,ASPARTATE AMINOTRANSFERASE,[2],66 u/L
same,BLOOD UREA NITROGEN,[2],10.67 mg/dL
same,CARBON DIOXIDE,[2],28.67 mmol/L
same,CHLORIDE,[2],100 MEQ/L
same,CHOLESTEROL,[2],81.67 mg/dL
same,CREATINE PHOSPHOKINASE,[2],160.33 u/L
same,CREATININE,[2],0.25 mg/dL
same,GLUCOSE,[2],157.33 mg/dL
same,LACTATE DEHYDROGENASE,[2],114.33 u/L
same,LIPASE,[2],13 u/L
same,PHOSPHORUS,[2],10.63 mg/dL
same,POTASSIUM,[2],6.03 MEQ/L
same,SODIUM,[2],141.9 MEQ/L
same,TOTAL BILIRUBIN,[2],0.13 mg/dL
same,TOTAL PROTEIN,[2],5.97 G/DL
same,URIC ACID,[2],1.17 mg/dL
same,ABSOLUTE BASOPHIL,[3],0 CELLS/uL
same,ABSOLUTE EOSINOPHIL,[3],0 CELLS/uL
same,ABSOLUTE LYMPHOCYTE,[3],4380.67 CELLS/uL
same,ABSOLUTE MONOCYTE,[3],0 CELLS/uL
same,ABSOLUTE SEGMENTED NEUTROPHIL,[3],119.33 CELLS/uL
same,BASOPHIL,[3],0%
same,EOSINOPHIL,[3],0%
same,ERYTHROCYTE COUNT,[3],4.85 x10E6/uL
same,HEMATOCRIT,[3],31.6%
same,HEMOGLOBIN,[3],12.13 G/DL
same,LEUKOCYTE COUNT,[3],4.5 x10E3/uL
same,LYMPHOCYTE,[3],97.33%
same,MEAN CORPUSCULAR HEMOGLOBIN,[3],25 pg
same,MEAN CORPUSCULAR HEMOGLOBIN CONCENTRATION,[3],38.37 G/DL
same,MEAN CORPUSCULAR VOLUME,[3],65.07 fL
same,MONOCYTE,[3],0%
same,NEUTROPHIL,[3],2.67%
same,NUCLEATED RED BLOOD CELLS,[3],0 /100WBC
same,PLATELET COUNT,[3],1116.33 x10E3/uL
same,ALANINE AMINOTRANSFERASE,[3],29.67 u/L
same,ALBUMIN,[3],4.6 G/DL
same,ALKALINE PHOSPHATASE,[3],184.33 u/L
same,ASPARTATE AMINOTRANSFERASE,[3],65.33 u/L
same,BLOOD UREA NITROGEN,[3],14 mg/dL
same,CARBON DIOXIDE,[3],33 mmol/L
same,CHLORIDE,[3],96.33 MEQ/L
same,CHOLESTEROL,[3],91.33 mg/dL
same,CREATINE PHOSPHOKINASE,[3],188.33 u/L
same,CREATININE,[3],0.26 mg/dL
same,GLUCOSE,[3],159.67 mg/dL
same,LACTATE DEHYDROGENASE,[3],98.33 u/L
same,LIPASE,[3],14 u/L
same,PHOSPHORUS,[3],9.43 mg/dL
same,POTASSIUM,[3],5.71 MEQ/L
same,SODIUM,[3],143.23 MEQ/L
same,TOTAL BILIRUBIN,[3],0.13 mg/dL
same,TOTAL PROTEIN,[3],6.97 G/DL
same,URIC ACID,[3],0.23 mg/dL
same,ABSOLUTE BASOPHIL,[4],0 CELLS/uL
same,ABSOLUTE EOSINOPHIL,[4],0 CELLS/uL
same,ABSOLUTE LYMPHOCYTE,[4],4093.67 CELLS/uL
same,ABSOLUTE MONOCYTE,[4],37.33 CELLS/uL
same,ABSOLUTE SEGMENTED NEUTROPHIL,[4],535.67 CELLS/uL
same,BASOPHIL,[4],0%
same,EOSINOPHIL,[4],0%
same,ERYTHROCYTE COUNT,[4],5.12 x10E6/uL
same,HEMATOCRIT,[4],34.5%
same,HEMOGLOBIN,[4],13.07 G/DL
same,LEUKOCYTE COUNT,[4],4.67 x10E3/uL
same,LYMPHOCYTE,[4],87%
same,MEAN CORPUSCULAR HEMOGLOBIN,[4],25.6 pg
same,MEAN CORPUSCULAR HEMOGLOBIN CONCENTRATION,[4],37.87 G/DL
same,MEAN CORPUSCULAR VOLUME,[4],67.47 fL
same,MONOCYTE,[4],0.67%
same,NEUTROPHIL,[4],12.33%
same,NUCLEATED RED BLOOD CELLS,[4],0 /100WBC
same,PLATELET COUNT,[4],1028 x10E3/uL
same,ALANINE AMINOTRANSFERASE,[4],39.33 u/L
same,ALBUMIN,[4],3.87 G/DL
same,ALKALINE PHOSPHATASE,[4],207.67 u/L
same,ASPARTATE AMINOTRANSFERASE,[4],81.33 u/L
same,BLOOD UREA NITROGEN,[4],10.33 mg/dL
same,CARBON DIOXIDE,[4],36 mmol/L
same,CHLORIDE,[4],107.67 MEQ/L
same,CHOLESTEROL,[4],84.67 mg/dL
same,CREATINE PHOSPHOKINASE,[4],296.67 u/L
same,CREATININE,[4],0.13 mg/dL
same,GLUCOSE,[4],192.33 mg/dL
same,LACTATE DEHYDROGENASE,[4],87.67 u/L
same,LIPASE,[4],11.33 u/L
same,PHOSPHORUS,[4],7.6 mg/dL
same,POTASSIUM,[4],5.08 MEQ/L
same,SODIUM,[4],138.17 MEQ/L
same,TOTAL BILIRUBIN,[4],0.13 mg/dL
same,TOTAL PROTEIN,[4],5.63 G/DL
same,URIC ACID,[4],0.3 mg/dL
same,ABSOLUTE BASOPHIL,[5],0 CELLS/uL
same,ABSOLUTE EOSINOPHIL,[5],0 CELLS/uL
same,ABSOLUTE LYMPHOCYTE,[5],1710 CELLS/uL
same,ABSOLUTE MONOCYTE,[5],38 CELLS/uL
same,ABSOLUTE SEGMENTED NEUTROPHIL,[5],152 CELLS/uL
same,BASOPHIL,[5],0%
same,EOSINOPHIL,[5],0%
same,ERYTHROCYTE COUNT,[5],7.48 x10E6/uL
same,HEMATOCRIT,[5],45.7%
same,HEMOGLOBIN,[5],15.7 G/DL
same,LEUKOCYTE COUNT,[5],1.9 x10E3/uL
same,LYMPHOCYTE,[5],90%
same,MEAN CORPUSCULAR HEMOGLOBIN,[5],21 pg
same,MEAN CORPUSCULAR HEMOGLOBIN CONCENTRATION,[5],34.4 G/DL
same,MEAN CORPUSCULAR VOLUME,[5],61.1 fL
same,MONOCYTE,[5],2%
same,NEUTROPHIL,[5],8%
same,NUCLEATED RED BLOOD CELLS,[5],0 /100WBC
same,PLATELET COUNT,[5],666 x10E3/uL
same,ALANINE AMINOTRANSFERASE,[5],237 u/L
same,ALBUMIN,[5],2.8 G/DL
same,ALKALINE PHOSPHATASE,[5],281 u/L
same,ASPARTATE AMINOTRANSFERASE,[5],835 u/L
same,BLOOD UREA NITROGEN,[5],15 mg/dL
same,CARBON DIOXIDE,[5],36 mmol/L
same,CHLORIDE,[5],106 MEQ/L
same,CHOLESTEROL,[5],13 mg/dL
same,CREATINE PHOSPHOKINASE,[5],348 u/L
same,CREATININE,[5],0.38 mg/dL
same,GLUCOSE,[5],192 mg/dL
same,LACTATE DEHYDROGENASE,[5],280 u/L
same,LIPASE,[5],10 u/L
same,PHOSPHORUS,[5],6.3 mg/dL
same,POTASSIUM,[5],4.73 MEQ/L
same,SODIUM,[5],147 MEQ/L
same,TOTAL BILIRUBIN,[5],0.2 mg/dL
same,TOTAL PROTEIN,[5],3.4 G/DL
same,URIC ACID,[5],0.2 mg/dL
